Reference: US6783949B1, “Processes for determining whether a test substance contains lipases or lipase inhibitors” (Aventis Pharma Deutschland GmbH, priority 1999, dated 2004)
Like-named read-outs stand apart in the source and are kept apart here.

Experiments:
Type in all cases: biochemical
[1] = target: T1, lipases, preferably HSL (Rattus norvegicus, UniProt P15304); assay: Synthesized NBD-acylglycerides as substrates of lipases
T1 sequence (P15304 1-768 isoform P15304-2): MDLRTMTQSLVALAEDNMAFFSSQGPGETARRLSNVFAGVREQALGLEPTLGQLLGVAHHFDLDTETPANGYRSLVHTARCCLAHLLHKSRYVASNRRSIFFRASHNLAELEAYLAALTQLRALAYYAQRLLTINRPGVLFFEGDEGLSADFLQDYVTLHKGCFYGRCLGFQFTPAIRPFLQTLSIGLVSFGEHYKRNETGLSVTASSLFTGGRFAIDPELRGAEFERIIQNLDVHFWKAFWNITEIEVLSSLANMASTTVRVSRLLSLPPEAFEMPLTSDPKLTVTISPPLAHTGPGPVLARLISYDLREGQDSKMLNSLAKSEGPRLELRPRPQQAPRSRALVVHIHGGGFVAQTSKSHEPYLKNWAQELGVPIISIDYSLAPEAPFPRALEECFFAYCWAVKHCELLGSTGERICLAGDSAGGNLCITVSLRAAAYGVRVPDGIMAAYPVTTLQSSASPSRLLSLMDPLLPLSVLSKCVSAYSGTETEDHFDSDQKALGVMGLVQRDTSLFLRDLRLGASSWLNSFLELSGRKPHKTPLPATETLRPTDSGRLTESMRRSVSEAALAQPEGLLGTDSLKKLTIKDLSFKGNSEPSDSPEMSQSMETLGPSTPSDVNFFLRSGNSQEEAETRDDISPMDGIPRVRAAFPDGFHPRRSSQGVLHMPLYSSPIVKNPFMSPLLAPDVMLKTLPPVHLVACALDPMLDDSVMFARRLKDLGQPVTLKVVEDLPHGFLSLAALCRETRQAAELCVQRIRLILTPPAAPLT

[2] = target: PC-specific phospholipase from Bacillus cereus (Bacillus cereus, UniProt P09598); details: for Increase in the absorption at 481 nm: PLC, 60 min, NAG 0.05 mg/ml
PC-specific phospholipase from Bacillus cereus, sequence (P09598 39-283 limits assumed): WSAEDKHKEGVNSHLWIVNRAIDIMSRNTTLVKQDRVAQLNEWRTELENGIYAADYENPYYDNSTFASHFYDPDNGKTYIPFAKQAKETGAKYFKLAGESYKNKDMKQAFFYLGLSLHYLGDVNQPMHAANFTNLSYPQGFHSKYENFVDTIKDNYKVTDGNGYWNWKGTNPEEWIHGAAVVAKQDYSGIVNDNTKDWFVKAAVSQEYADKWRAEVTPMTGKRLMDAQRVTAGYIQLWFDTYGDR

[3] = target: T2, pancreatic lipase (Homo sapiens, UniProt P16233); assay: Cleavage of NAG by pancreatic lipase; details: for Increase in the absorption at 481 nm: Pancreatic lipase, 60 min, NAG 0.05 mg/ml
T2 sequence (P16233 17-465): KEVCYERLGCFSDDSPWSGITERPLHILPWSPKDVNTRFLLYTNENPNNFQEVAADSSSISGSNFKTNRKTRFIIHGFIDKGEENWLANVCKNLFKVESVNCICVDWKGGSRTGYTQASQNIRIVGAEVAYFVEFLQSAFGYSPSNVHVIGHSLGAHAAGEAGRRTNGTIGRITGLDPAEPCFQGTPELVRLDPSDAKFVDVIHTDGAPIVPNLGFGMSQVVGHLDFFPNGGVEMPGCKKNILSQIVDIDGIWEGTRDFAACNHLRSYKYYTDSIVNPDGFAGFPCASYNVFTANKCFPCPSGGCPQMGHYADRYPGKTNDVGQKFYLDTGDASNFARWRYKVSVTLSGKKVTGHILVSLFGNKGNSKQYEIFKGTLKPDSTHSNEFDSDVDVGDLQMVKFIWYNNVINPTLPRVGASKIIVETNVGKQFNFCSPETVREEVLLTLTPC

Structure (SMILES): O=C(CCCCCCCCCCCNc1ccc([N+](=O)[O-])c2nonc12)OCC(O)CO (centres unmarked) [Compound (3)]
- Activity as substrate of lipases [1]: “best” substrate
- Increase in the absorption at 481 nm ([2]; enzyme 10 arb. units): 0 arb. units
- Increase in the absorption at 481 nm ([2]; enzyme 20 arb. units): 1 ± 1 arb. units
- Increase in the absorption at 481 nm ([2]; enzyme 50 arb. units): 2 ± 2 arb. units
- Increase in the absorption at 481 nm ([2]; enzyme 75 arb. units): 2 ± 1 arb. units
- Increase in the absorption at 481 nm ([2]; enzyme 100 arb. units): 3 ± 1 arb. units
- Increase in the absorption at 481 nm ([2]; enzyme 150 arb. units): 3 ± 1 arb. units
- Increase in the absorption at 481 nm ([2]; enzyme 200 arb. units): 5 ± 2 arb. units
- Increase in the absorption at 481 nm ([2]; enzyme 250 arb. units): 5 ± 2 arb. units
- Increase in the absorption at 481 nm ([2]; enzyme 300 arb. units): 7 ± 3 arb. units
- Increase in the absorption at 481 nm ([2]; enzyme 400 arb. units): 10 ± 3 arb. units
- Activity relative to HSL ([2]; bacterial PC-specific phospholipase, conditions optimized for HSL): virtually inactive
- Increase in the absorption at 481 nm ([3]; enzyme 10 arb. units): 9 ± 2 arb. units
- Increase in the absorption at 481 nm ([3]; enzyme 20 arb. units): 14 ± 4 arb. units
- Increase in the absorption at 481 nm ([3]; enzyme 50 arb. units): 39 ± 7 arb. units
- Increase in the absorption at 481 nm ([3]; enzyme 75 arb. units): 64 ± 10 arb. units
- Increase in the absorption at 481 nm ([3]; enzyme 100 arb. units): 92 ± 14 arb. units
- Increase in the absorption at 481 nm ([3]; enzyme 150 arb. units): 140 ± 18 arb. units
- Increase in the absorption at 481 nm ([3]; enzyme 200 arb. units): 188 ± 21 arb. units
- Increase in the absorption at 481 nm ([3]; enzyme 250 arb. units): 234 ± 30 arb. units
- Increase in the absorption at 481 nm ([3]; enzyme 300 arb. units): 265 ± 34 arb. units
- Increase in the absorption at 481 nm ([3]; enzyme 400 arb. units): 286 ± 32 arb. units
- Activity relative to HSL ([3]; pancreatic lipase, conditions optimized for HSL): 1%
